Source: patent US20230285504A1, “INHIBITION OF REPERFUSION INJURY WITH A PSD-95 INHIBITOR” (NONO INC., priority 2020, published 2023)
No end group written: not given here.

Experiments:
[1] = system: patients with acute ischemic stroke (AIS) due to a large vessel arterial occlusion selected for endovascular thrombectomy; settings: published primary trial result; cited from earlier work
[2] = system: patients with acute ischemic stroke (AIS) due to a large vessel arterial occlusion selected for endovascular thrombectomy; experiment: ESCAPE-NA1 phase 3 trial, exploratory re-analyses of dosing time (mRS 0-2 at 90 days); format: in vivo, human
Description: The details of the ESCAPE-NA1 methodology are published^2. In-brief, the trial was conducted at 48 sites globally. Adult patients aged 18 or greater with a disabling ischemic stroke (baseline National Institutes of Health Stroke Scale (NIHSS) score^11>5), CT evidence of a small-to-moderate ischemic core (ASPECTS 5-10)^12 and CTA evidence of LVO with a moderate-to-good collateral circulation^13,14 were enrolled in a window of up to 12 hours after the onset of stroke symptoms (last-seen-well time). Enrollment was stratified on the use of intravenous alteplase (yes/no) and declared initial thrombectomy device (stent-retriever or aspiration device). Randomized minimization was conducted within strata aimed to achieve distribution balance with regard to age, sex, baseline NIHSS, site of arterial occlusion, baseline ASPECTS and clinical site. Nerinetide and placebo vials were visually identical other than a unique vial number so that all trial personnel and patients were fully masked to treatment allocation.
After qualifying imaging, patients were treated with rapid EVT using currently available devices. Patients received intravenous alteplase^15 according to usual care following national or regional guidelines, before or during EVT, at a primary hospital prior to transfer or at the endovascular center. Treatment with alteplase was not a requirement for the study and interpretation of treatment guidelines was at the discretion of the treating team. Patients received trial drug (1:1 nerinetide:placebo), as a single dose of 2.6 mg/kg to a maximum dose of 270 mg as soon as possible after randomization. Time targets were imaging to randomization 30 minutes, imaging to study drug administration 60 minutes, and imaging to arterial access/puncture 60 minutes. Targets from imaging to reperfusion were 90th percentile 90 minutes and a median at 75 minutes.^16,17 Times (min) for workflow are summarized in Table 3.
The primary outcome was good outcome at 90 days as defined by a score of 0-2 on the modified Rankin scale (mRS) (range, 0 [no symptoms] to 6 [death]) for the assessment of neurologic functional disability^18-20. Secondary 90 day efficacy outcomes included neurological outcome as defined by the NIHSS of 0-2, functional independence in activities of daily living as defined by a Barthel Index score of 95, and mortality rates. Tertiary outcomes included assessments of stroke volumes on 24-hour imaging (MR or CT brain). Imaging interpretation was conducted at a central core laboratory and clinical data were verified by independent monitors. Infarct volumes were measured by summation of manual planimetric demarcation of infarct on axial imaging (636/1099 (57.9%) on CT and 463/1099 (42.1%) on MRI).
Analyses of efficacy in this stratum were conducted as per the primary analysis of ESCAPE-NA1 on the intention-to-treat (ITT) population, and comprised a logistic regression providing an adjusted estimate of effect size including treatment, the stratification variable of declared initial endovascular approach, and the baseline covariates of age, sex, baseline NIHSS score, baseline ASPECTS, occlusion location and clinical site. Analyses of secondary efficacy outcomes were conducted similarly to the primary analysis. To determine the impact of time metrics of interest on the efficacy of nerinetide (e.g., Onset to randomization, CT to reperfusion, Randomization to reperfusion, and Drug administration to reperfusion), the metrics variables were included in the regression analysis that was otherwise conducted like the primary analysis. Deceased patients were included in the ITT population with a mRS score of 6, a Barthel Index of 0 and NIHSS of 42. Missing primary outcomes (n=9) were imputed as the worst possible score, counted as poor outcome (mRS 3-6 dichotomy) and for mortality analysis, imputed as deaths. All analyses were performed with the use of STATA software (v16.0).

[3] = Plasma half-life in human; format: in vivo; settings: intravenous, human equivalent concentrations, read-out: half-life of nerinetide
Description: Tat-NR2B9c has a plasma half-life in human plasma of about ten minutes. […] Alteplase (a recombinant form of tPA) has a half-life in human plasma of only about five minutes. But more significant for present purposes is the half-life of plasmin, which is induced by alteplase and other thrombolytic agents and is responsible for cleavage of Tat-NR2B9c. Plasmin has been reported to have a half-life in human plasma of about 4-8 hr.

[4] = system: embolic middle cerebral artery occlusion (eMCAO)
Description: Nerinetide (7.6 mg/kg) was administered as an intravenous bolus injection either 30 minutes before, or simultaneously with, the onset of a 60-minute infusion of rt-PA (5.4 mg/kg with a 10% bolus followed by 90% over 60 minutes). […] Experimental timeline. […] Hemispheric Infarct volume measurements 24 hours after eMCAo. […] Percentage of hemispheric brain swelling 24 hours after eMCAo and (D). Neurological scores 24 hours after eMCAo. Treatments were administered intravenously at the times indicated in (A). Bars represent mean±SD, with all individual data points plotted. Significant differences (in B) and (in C) are indicated with an asterisk when compared to the control group/nerinetide alone or with a number sign when compare to the thrombolytic agent (one-way ANOVA post hoc Tukey's correction for multiple comparisons test, *P<0.01 or #P <0.01, respectively) N=12-15 animals/group. Significant differences (in D) are indicated with an asterisk when compared to the control group/nerinetide alone or with a number sign when compare to the thrombolytic agent (Kruskal-Wallis analysis of variance on ranks with a post-hoc Dunn's correction for multiple comparisons test, *P<0.01 or #P<0.01, respectively).
To test this, male Sprague-Dawley rats (10-12 weeks old; 270-310 g; Charles River, Montreal, QC, Canada) were subjected to embolic middle cerebral artery occlusion (eMCAO), produced by the introduction of an autologous blood thrombus into the middle cerebral artery. Reperfusion was achieved by treatment with intravenous alteplase at a total dose of 5.4 mg/kg beginning at 90 minutes after ischemia onset. Alteplase was administered using the human injection protocol in which 10% of the total dose is given as a bolus, with the remainder 90% of the dose being given over a 60-minute infusion. The dose of alteplase was 6 times the human dose, in anticipation that the rat fibrinolytic system may be less sensitive to human recombinant tPA. […] Nerinetide was administered either 30 minutes prior to, or concurrently with, the start of the alteplase administration (FIG. 7A) at a dose of 7.6 mg/kg. […] Infarct volumes, hemispheric swelling and neurological scores were evaluated at 24 hours.

[5] = no-alteplase, drug started 22 or more minutes from initial reperfusion
[6] = no-alteplase, long CT to reperfusion interval (>=73.5 minutes)
[7] = no-alteplase, study drug started less than 5 minutes after groin puncture
[8] = nerinetide alone 7.6 mg/kg, 60 minutes after eMCAO, 24 hours
[9] = nerinetide at 60 minutes followed by alteplase 30 minutes later, 24 hours

Sequence: YGRKKRRQRRRKLSSIESDV [nerinetide]
- outcome in ESCAPE-NA1, nerinetide group that did not receive alteplase [1]: improved functional independence, reduced mortality, and reduced infarct volume
- outcome in ESCAPE-NA1, patients that received alteplase [1]: did not benefit
- adj. OR for favorable outcome (mRS 0-2 at 90 days) ([2]; no-alteplase stratum, all time windows of 12 h enrollment, nerinetide 2.6 mg/kg vs placebo): 1.757
- absolute effect size of nerinetide over placebo [2, 5]: 16.25%
- relative effect [2, 5]: 50.0%
- adj OR for functional outcome (mRS 0-2) [2, 6]: 5.100
- relative effect [2, 6]: 43.3%
- unadjusted absolute effect size [2, 6]: 16.52%
- adj OR for mRS(0-2) ([2]; no-alteplase, long interval drug infusion start to initial reperfusion (>=22 minutes)): 2.715
- adj OR for functional outcome (mRS 0-2) ([2]; no-alteplase, short CT to reperfusion interval (<73.5 minutes)): 0.825
- adj OR for mRS(0-2) ([2]; no-alteplase, short interval drug infusion start to initial reperfusion (<22 minutes)): 1.13
- adj OR, primary analysis (mRS 0-2) ([2]; no-alteplase, study drug more than 5 minutes after groin puncture): 1.50
- adj OR, primary analysis (mRS 0-2) ([2]; no-alteplase, study drug started at any time less than 5 minutes after groin puncture): 2.33
- absolute effect size of nerinetide over placebo [2, 7]: 16.56%
- relative effect [2, 7]: 36.1%
- absolute effect sizes ([2]; no-alteplase, treated in longer intervals from reperfusion (summary)): approximately 16%
- absolute effect ([2]; whole no-alteplase stratum): 9.65%
- half-life [3]: 5 to 10 min
- beneficial effect of nerinetide on infarction volume ([4]; nerinetide administered concurrently with alteplase at 60 min after eMCAO): eliminated completely
- infarction volume [4, 8]: 175±40 mm3
- reduction of infarction volume [4, 8]: 59.2%
- infarct volume reduction ([4]; nerinetide at 60 minutes followed by alteplase 30 minutes later): 70%
- hemispheric swelling [4, 9]: reducing hemispheric swelling
- neurological scores [4, 9]: improving neurological scores
